Source: patent publication US12161650B2, “Pharmaceutical compositions comprising a ryanodine receptor modulator and uses thereof” (priority 2021, dated 2024)
Like-named read-outs stand apart in the source and are kept apart here.

Columns and labels:
[1] = Phase 1 clinical trial, Part I single ascending doses, plasma pharmacokinetics; assay type: in vivo, human (healthy male volunteers); settings: for Tmax / AUC(0-t) / Cmax / AUC / half-life: male, human, plasma; for AUC(0-t) / Cmax: Day 1, geom. mean; for AUC: Day 1, zero to infinity; for AUC / half-life: geom. mean; for half-life: read-out: t1/2, z (converted)
Procedure: (§1) A Phase 1, randomized, double-blind, placebo-controlled clinical trial was performed to assess the safety and pharmacokinetics (PK) of Compound I after single, escalating, and repeated oral doses in health male volunteers.
4-[(7-methoxy-2,3-dihydro-1,4-benzothiazepin-4(5H)yl)methyl]benzoic acid hemi-fumarate (Compound I) was administered in a gastro-resistant tablet according to Example 1. The formulation contained 20 mg, 40 mg, or 200 mg Compound I (based on the mass of 4-[(7-methoxy-2,3-dihydro-1,4-benzothiazepin-4(5H)yl)methyl]benzoic acid). Placebo tablet according to Example 4 was used as comparator.
[…] Forty subjects completed part I: 30 active (6 per cohort) and 10 placebo.
In Part I, blood samples were collected from each participant as follows: at pre-dose, then 0.25, 0.5, 1, 1.5, 2, 3, 4, 5, 6, 8, 10, 12, 16, 24, 36, 48, 60, 72, and 96 hours after dosing.
The area under the plasma concentration-time curve was calculated using a combined linear and logarithmic trapezoidal rule. The interpolation was linear in the constant and ascending parts of the plasma concentration-time profiles. The interpolation was logarithmic in the descending parts.
For Part I, to assess the dose effect on the PK of Compound I, the mean AUClast, and Cmax for each dose were calculated and were plotted by dose.
For each group and treatment, descriptive statistics (N, arithmetic mean, standard deviation, minimum, median, maximum, coefficient of variation, geometric mean, and geometric CV, as appropriate) were calculated for the concentrations and pharmacokinetic parameters of Compound I.
Plasma and muscle samples were analyzed by LC-MS/MS method.

[2] = Phase 1 clinical trial, safety of single and repeated oral doses; assay type: in vivo, human (healthy male volunteers)
Procedure: as §1
(§2) The primary objective was to assess the safety of escalating single oral doses of Compound I compared with placebo in healthy male volunteers. The secondary objective was to measure plasma pharmacokinetic (PK) parameters of Compound I.
as §2, with “repeated” for “single”, “I over 14 days” for “I”, “I and to assess the concentration of Compound I in quadriceps muscle.” for “I.”

Tmax ([1]; single oral administration at 20 to 400 mg, across doses, read-out: median Tmax): 3 to 4.5 h
AUC(0-t) ([1]; single oral dose 40 mg (Treatment A, n = 6)): 68.7 µg·h/mL
Cmax ([1]; single oral dose 40 mg): 3940 ng/mL
Tmax ([1]; single oral dose 40 mg, Day 1, median, read-out: tmax): 3 h
AUC ([1]; single oral dose 40 mg): 71.7 µg·h/mL
half-life ([1]; single oral dose 40 mg): 20.9 h
AUC(0-t) ([1]; single oral dose 80 mg (Treatment B, n = 6)): 153 µg·h/mL
Cmax ([1]; single oral dose 80 mg): 6880 ng/mL
Tmax ([1]; single oral dose 80 mg, Day 1, median, read-out: tmax): 3 h
AUC ([1]; single oral dose 80 mg): 163 µg·h/mL
half-life ([1]; single oral dose 80 mg): 22.7 h
AUC(0-t) ([1]; single oral dose 160 mg (Treatment C, n = 6)): 304 µg·h/mL
Cmax ([1]; single oral dose 160 mg): 15500 ng/mL
Tmax ([1]; single oral dose 160 mg, Day 1, median, read-out: tmax): 3 h
AUC ([1]; single oral dose 160 mg): 312 µg·h/mL
half-life ([1]; single oral dose 160 mg): 17.5 h
AUC(0-t) ([1]; single oral dose 240 mg (Treatment D, n = 6)): 451 µg·h/mL
Cmax ([1]; single oral dose 240 mg): 24500 ng/mL
Tmax ([1]; single oral dose 240 mg, Day 1, median, read-out: tmax): 4.5 h
AUC ([1]; single oral dose 240 mg): 464 µg·h/mL
half-life ([1]; single oral dose 240 mg): 17.7 h
AUC(0-t) ([1]; single oral dose 400 mg (Treatment E, n = 6)): 656 µg·h/mL
Cmax ([1]; single oral dose 400 mg): 35100 ng/mL
Tmax ([1]; single oral dose 400 mg, Day 1, median, read-out: tmax): 3.5 h
AUC ([1]; single oral dose 400 mg): 708 µg·h/mL
half-life ([1]; single oral dose 400 mg): 18.7 h
Tlag ([1]; single oral administration at 20 to 400 mg): less than 2 hours
Absorption ([1]; single oral administration of 20, 40, 80, 160, 240, and 400 mg, after a lag time): rapid absorption was observed
Dose proportionality with regard to AUClast and Cmax ([1]; single oral doses, graphical inspections): dose proportionality
Compound: COc1ccc2c(c1)CN(Cc1ccc(C(=O)O)cc1)CCS2.O=C(O)/C=C/C(=O)O [Compound I, 4-[(7-methoxy-2,3-dihydro-1,4-benzothiazepin-4(5H)yl)methyl]benzoic acid hemifumarate]
Non-linearity with the dose ([1]; single oral doses): No evidence of non-linearity with the dose was observed
Tolerability ([2]; at the doses and dose regimens tested): well tolerated
Serious adverse events ([2]; single doses up to 400 mg and repeated doses up to 240 mg/d for 14 days): No serious adverse events were reported
